Data from ChEMBL document CHEMBL5634127, “Synthesis of novel rhodamine type Anthrone Spiro-lactam (ASL) analogues and evaluation of antiviral activity against dengue and chikungunya viruses” (Eur J Med Chem, 2023).
The source made the active and inactive calls. The calls are words filed in the database; no cut-off is given here.

Assays:
Chikungunya virus [1] = experiment: Antiviral activity against Chikungunya virus infected in green monkey Vero cells assessed as reduction in viral growth at 12.5 uM preincubated for 1 hr with compound followed by virus infection and measured after 24 hrs by focus forming unit assay; format: functional, organism-based; conditions: time 25.0 hrs
[2] = Cytotoxicity against green monkey Vero cells incubated for 5 days by MTT assay; format: toxicity, cell-based; conditions: chlorocebus sabaeus, time 5 day
Dengue virus [3] = experiment: Antiviral activity against Dengue virus infected in green monkey Vero cells assessed as reduction in colony forming unit at 12.5 uM incubated for 1 hr along with virus infection and measured after 120 hrs by focus forming unit assay (reference value: 5.187 log10FFU/ml); format: functional; conditions: time 121 hrs
Dengue virus [4] = experiment: Antiviral activity against Dengue virus infected in green monkey Vero cells assessed as reduction in colony forming unit incubated for 1 hr along with virus infection and measured after 120 hrs by focus forming unit assay; format: functional, organism-based; conditions: time 121.0 hrs
[5] = Cytotoxicity against green monkey Vero cells assessed as cell viability at 0.78 to 100 uM incubated for 5 days by MTT assay relative to control; format: toxicity, cell-based; conditions: chlorocebus sabaeus, dose 0.78-100 µM, time 5 day, read-out: Activity
Chikungunya virus [6] = experiment: Antiviral activity against Chikungunya virus infected in green monkey Vero cells assessed as reduction in viral growth at 12.5 uM incubated for 1 hr along with virus infection and measured after 24 hrs by focus forming unit assay; format: functional, organism-based; conditions: time 25.0 hrs
Chikungunya virus [7] = experiment: Antiviral activity against Chikungunya virus infected in green monkey Vero cells assessed as reduction in viral growth at 50 uM preincubated for 1 hr with compound followed by virus infection and measured after 24 hrs by focus forming unit assay; format: functional, organism-based; conditions: time 25.0 hrs
Chikungunya virus [8] = experiment: Antiviral activity against Chikungunya virus infected in green monkey Vero cells assessed as reduction in viral growth at 50 uM incubated for 1 hr along with virus infection and measured after 24 hrs by focus forming unit assay; format: functional, organism-based; conditions: time 25.0 hrs
Chikungunya virus [9] = experiment: Antiviral activity against Chikungunya virus infected in green monkey Vero cells assessed as reduction in viral growth at 6.25 uM incubated for 1 hr along with virus infection and measured after 24 hrs by focus forming unit assay; format: functional, organism-based; conditions: time 25.0 hrs
Chikungunya virus [10] = experiment: Antiviral activity against Chikungunya virus infected in green monkey Vero cells assessed as reduction in viral growth at 6.25 uM preincubated for 1 hr with compound followed by virus infection and measured after 24 hrs by focus forming unit assay; format: functional, organism-based; conditions: time 25.0 hrs
Chikungunya virus [11] = experiment: Antiviral activity against Chikungunya virus infected in green monkey Vero cells assessed as reduction in viral growth incubated for 1 hr after the virus infection and measured after 24 hrs by focus forming unit assay; format: functional, organism-based; conditions: time 25.0 hrs
Chikungunya virus [12] = experiment: Antiviral activity against Chikungunya virus infected in green monkey Vero cells assessed as reduction in colony forming unit at 50 uM incubated for 1 hr after the virus infection and measured after 24 hrs by focus forming unit assay; format: functional; conditions: time 25 hrs
Dengue virus [13] = experiment: Antiviral activity against Dengue virus infected in green monkey Vero cells assessed as reduction in colony forming unit at 50 uM incubated for 1 hr after the virus infection and measured after 120 hrs by focus forming unit assay; format: functional; conditions: time 121 hrs
Dengue virus [14] = experiment: Antiviral activity against Dengue virus infected in green monkey Vero cells assessed as reduction in viral titer at 50 uM incubated for 1 hr after the virus infection and measured after 120 hrs by focus forming unit assay (reference value: 6.134 log10FFU/ml); format: functional; conditions: time 121 hrs
Dengue virus [15] = experiment: Antiviral activity against Dengue virus infected in green monkey Vero cells assessed as reduction in colony forming unit incubated for 1 hr after the virus infection and measured after 120 hrs by focus forming unit assay; format: functional, organism-based; conditions: time 121.0 hrs
Dengue virus [16] = experiment: Antiviral activity against Dengue virus infected in green monkey Vero cells assessed as reduction in viral titer at 100 uM incubated for 1 hr after the virus infection and measured after 120 hrs by focus forming unit assay (reference value: 6.134 log10FFU/ml); format: functional; conditions: time 121 hrs
Chikungunya virus [17] = experiment: Antiviral activity against Chikungunya virus infected in green monkey Vero cells assessed as reduction in viral growth at 100 uM incubated for 1 hr along with virus infection and measured after 24 hrs by focus forming unit assay; format: functional, organism-based; conditions: time 25.0 hrs
Chikungunya virus [18] = experiment: Antiviral activity against Chikungunya virus infected in green monkey Vero cells assessed as reduction in viral growth at 100 uM preincubated for 1 hr with compound followed by virus infection and measured after 24 hrs by focus forming unit assay; format: functional, organism-based; conditions: time 25.0 hrs
Dengue virus [19] = experiment: Antiviral activity against Dengue virus infected in green monkey Vero cells assessed as reduction in colony forming unit at 100 uM incubated for 1 hr after the virus infection and measured after 120 hrs by focus forming unit assay; format: functional; conditions: time 121 hrs
Chikungunya virus [20] = experiment: Antiviral activity against Chikungunya virus infected in green monkey Vero cells assessed as reduction in viral growth at 3.125 uM preincubated for 1 hr with compound followed by virus infection and measured after 24 hrs by focus forming unit assay; format: functional, organism-based; conditions: time 25.0 hrs
Chikungunya virus [21] = experiment: Antiviral activity against Chikungunya virus infected in green monkey Vero cells assessed as reduction in viral growth at 3.125 uM incubated for 1 hr along with virus infection and measured after 24 hrs by focus forming unit assay; format: functional, organism-based; conditions: time 25.0 hrs
Dengue virus [22] = experiment: Antiviral activity against Dengue virus infected in green monkey Vero cells assessed as reduction in viral titer at 25 uM incubated for 1 hr after the virus infection and measured after 120 hrs by focus forming unit assay (reference value: 6.134 log10FFU/ml); format: functional; conditions: time 121 hrs

Compound	CC50 at 120 h [2] [µM]	viability at 120 h, up to 100 µM [5] [%]	Activity (Chikungunya virus [7])	Activity (Chikungunya virus [8])	Remaining viral titer (Dengue virus [14]) [log10FFU/ml]	Activity (Dengue virus [15])	further results
COc1cc2c(cc1OC)C1(c3cc(OC)c(OC)cc3C2=O)c2cc(OC)c(OC)cc2C(=O)N1/N=C/c1ccccc1O	173	≥ 90					Activity (Chikungunya virus [1]): inactive; Activity (Dengue virus [3]): 4.101 log10FFU/ml; Activity (Dengue virus [4]): Dose-Dependent Effect; Activity (Chikungunya virus [6]): inactive
COc1cc2c(cc1OC)C1(c3cc(OC)c(OC)cc3C2=O)c2cc(OC)c(OC)cc2C(=O)N1/N=C/c1c2ccccc2cc2ccccc12	352	≥ 90	inactive	inactive			
COc1cc2c(cc1OC)C1(c3cc(OC)c(OC)cc3C2=O)c2cc(OC)c(OC)cc2C(=O)N1NC(=O)c1ccc([N+](=O)[O-])cc1	97.3	≥ 90	inactive	inactive			
COc1cc2c(cc1OC)C1(c3cc(OC)c(OC)cc3C2=O)c2cc(OC)c(OC)cc2C(=O)N1/N=C/c1ccc2ccccc2n1	100	≥ 90					Activity (Chikungunya virus [9]): inactive; Activity (Chikungunya virus [10]): inactive
COc1cc2c(cc1OC)C1(c3cc(OC)c(OC)cc3C2=O)c2cc(OC)c(OC)cc2C(=O)N1NC(=O)c1cc(C(F)(F)F)cc(C(F)(F)F)c1	98.9	≥ 90	inactive	inactive			Activity (Chikungunya virus [11]): Dose-Dependent Effect; Activity (Chikungunya virus [12]): >=1 log10CFU
COc1cc(/C=N/N2C(=O)c3cc(OC)c(OC)cc3C23c2cc(OC)c(OC)cc2C(=O)c2cc(OC)c(OC)cc23)ccc1O	113	≥ 90	inactive	inactive	5.23	Dose-Dependent Effect	Activity (Dengue virus [13]): >=1 log10CFU
COc1cc2c(cc1OC)C1(c3cc(OC)c(OC)cc3C2=O)c2cc(OC)c(OC)cc2C(=O)N1/N=C/c1ccc(N(C)C)cc1	122	≥ 90	inactive	inactive			
COc1cc2c(cc1OC)C1(c3cc(OC)c(OC)cc3C2=O)c2cc(OC)c(OC)cc2C(=O)N1/N=C/c1ccc(Br)cc1	181	≥ 90	inactive	inactive	5.431	Dose-Dependent Effect	Activity (Dengue virus [13]): >=1 log10CFU
COc1cc2c(cc1OC)C1(c3cc(OC)c(OC)cc3C2=O)c2cc(OC)c(OC)cc2C(=O)N1/N=C/c1cc(OC)c(O)c(OC)c1	> 100	≥ 90			5.052	Dose-Dependent Effect	Activity (Dengue virus [16]): 3.994 log10FFU/ml; Activity (Chikungunya virus [17]): inactive; Activity (Chikungunya virus [18]): inactive; Activity (Dengue virus [19]): >=1 log10CFU
COc1cc2c(cc1OC)C1(c3cc(OC)c(OC)cc3C2=O)c2cc(OC)c(OC)cc2C(=O)N1/N=C/c1cccs1	52.7	≥ 90					Activity (Chikungunya virus [20]): inactive; Activity (Chikungunya virus [21]): inactive
COc1cc2c(cc1OC)C1(c3cc(OC)c(OC)cc3C2=O)c2cc(OC)c(OC)cc2C(=O)N1/N=C/c1ccccc1	> 100	≥ 90				Dose-Dependent Effect	Activity (Dengue virus [16]): 5.03 log10FFU/ml; Activity (Chikungunya virus [17]): inactive; Activity (Chikungunya virus [18]): inactive; Activity (Dengue virus [19]): >=1 log10CFU
COc1cc2c(cc1OC)C1(c3cc(OC)c(OC)cc3C2=O)c2cc(OC)c(OC)cc2C(=O)N1/N=C/c1cc(OC)c(OC)c(OC)c1	99.8	≥ 90	inactive	inactive	4.098	Dose-Dependent Effect	Activity (Dengue virus [13]): >=1 log10CFU; Activity (Chikungunya virus [11]): Dose-Dependent Effect; Activity (Chikungunya virus [12]): >=1 log10CFU; Activity (Dengue virus [22]): 5.064 log10FFU/ml
